# Experiments:
# [1] = target: T1, EGFR T790M/L858R (NCI-H1975 cells) (Homo sapiens, UniProt P00533, L858R/T790M); assay: EGFR (L858R) degradation analysis, Total EGFR (L858R) HTRF, NCI-H1975 cells; assay type: cell-based; conditions: 6 hours
# T1 construct: NCI-H1975 (harboring EGFR heterozygous T790M/L858R mutations); host or cells: NCI-H1975
# Text: (§1) NCI-H1975 (harboring EGFR heterozygous T790M/L858R mutations) and NCI-H3255 (harboring EGFR heterozygous L858R mutation) were purchased from ATCC and NCI, respectively. NCI-H1975+CS (harboring EGFR heterozygous T/790M/L858R/C797S mutations) was generated using CRISPR technology to introduce the additional C797S mutation by Horizon Discovery. RPMI 1640 no-phenol red medium and fetal bovine serum (FBS) were purchased from Gibco (Grand Island, NY, USA). Cell culture flasks and 384-well microplates were acquired from VWR (Radnor, PA, USA). Total EGFR (L858R) HTRF assay kits were purchased from Cisbio (Bedford, MA, USA).
# (§2) Degradation of EGFR protein containing L858R mutation was determined based on quantification of FRET signal using Total EGFR (L858R) HTRF assay kit. Test compounds were added to the 384-well plate from a top concentration of 10 μM with 11 points, half log titration in duplicates. NCI-H1975, NCI-H1975+CS or NCI-H3255 cells were added into 384-well plates at a cell density of 10000, 10000 or 1000 cells per well, respectively. The plates were kept at 37° C. with 5% CO2 for 6 hours. Cells treated in the absence of the test compound were the negative control. Positive control was set by wells containing all reagents but no cells. FRET signal was acquired on EnVision™ Multilabel Reader (PerkinElmer, Santa Clara, CA, USA).
# [2] = target: T2, EGFR L858R (NCI-H3255 cells) (Homo sapiens, UniProt P00533, L858R); assay: EGFR (L858R) degradation analysis, Total EGFR (L858R) HTRF, NCI-H3255 cells; assay type: cell-based; conditions: 6 hours
# T2 construct: NCI-H3255 (harboring EGFR heterozygous L858R mutation); host or cells: NCI-H3255
# T2 sequence (P00533 25-1210 L858R): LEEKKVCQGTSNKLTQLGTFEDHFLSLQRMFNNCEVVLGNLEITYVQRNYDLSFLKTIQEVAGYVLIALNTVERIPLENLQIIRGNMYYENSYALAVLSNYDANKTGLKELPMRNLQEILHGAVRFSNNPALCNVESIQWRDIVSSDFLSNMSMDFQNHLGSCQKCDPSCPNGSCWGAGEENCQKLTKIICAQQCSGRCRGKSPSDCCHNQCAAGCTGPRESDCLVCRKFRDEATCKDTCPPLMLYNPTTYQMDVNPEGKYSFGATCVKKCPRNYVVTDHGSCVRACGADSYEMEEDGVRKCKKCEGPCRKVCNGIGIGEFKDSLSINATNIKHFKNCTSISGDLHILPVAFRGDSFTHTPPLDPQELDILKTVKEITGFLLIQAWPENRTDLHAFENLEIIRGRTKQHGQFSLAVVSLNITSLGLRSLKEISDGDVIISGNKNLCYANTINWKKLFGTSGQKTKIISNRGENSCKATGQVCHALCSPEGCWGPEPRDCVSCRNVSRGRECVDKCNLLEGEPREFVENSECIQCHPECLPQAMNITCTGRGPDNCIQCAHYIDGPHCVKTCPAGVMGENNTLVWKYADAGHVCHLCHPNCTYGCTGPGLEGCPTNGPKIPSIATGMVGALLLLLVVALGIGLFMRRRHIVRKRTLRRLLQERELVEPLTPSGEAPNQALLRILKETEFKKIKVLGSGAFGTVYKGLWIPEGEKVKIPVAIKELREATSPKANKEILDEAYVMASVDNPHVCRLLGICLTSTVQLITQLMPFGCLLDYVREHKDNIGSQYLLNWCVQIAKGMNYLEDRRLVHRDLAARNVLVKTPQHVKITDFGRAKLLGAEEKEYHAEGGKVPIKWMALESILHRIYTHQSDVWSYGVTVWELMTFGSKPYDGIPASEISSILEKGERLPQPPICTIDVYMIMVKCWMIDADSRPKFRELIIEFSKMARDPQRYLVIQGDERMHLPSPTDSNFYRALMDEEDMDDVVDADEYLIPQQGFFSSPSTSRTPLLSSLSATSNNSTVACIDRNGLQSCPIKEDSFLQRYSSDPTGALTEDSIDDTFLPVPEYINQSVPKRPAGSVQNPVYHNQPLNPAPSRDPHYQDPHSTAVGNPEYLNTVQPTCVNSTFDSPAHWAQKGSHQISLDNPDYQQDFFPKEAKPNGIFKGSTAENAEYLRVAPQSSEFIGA
# Text: as §1, §2
# T1 sequence (P00533 25-1210 T790M/L858R): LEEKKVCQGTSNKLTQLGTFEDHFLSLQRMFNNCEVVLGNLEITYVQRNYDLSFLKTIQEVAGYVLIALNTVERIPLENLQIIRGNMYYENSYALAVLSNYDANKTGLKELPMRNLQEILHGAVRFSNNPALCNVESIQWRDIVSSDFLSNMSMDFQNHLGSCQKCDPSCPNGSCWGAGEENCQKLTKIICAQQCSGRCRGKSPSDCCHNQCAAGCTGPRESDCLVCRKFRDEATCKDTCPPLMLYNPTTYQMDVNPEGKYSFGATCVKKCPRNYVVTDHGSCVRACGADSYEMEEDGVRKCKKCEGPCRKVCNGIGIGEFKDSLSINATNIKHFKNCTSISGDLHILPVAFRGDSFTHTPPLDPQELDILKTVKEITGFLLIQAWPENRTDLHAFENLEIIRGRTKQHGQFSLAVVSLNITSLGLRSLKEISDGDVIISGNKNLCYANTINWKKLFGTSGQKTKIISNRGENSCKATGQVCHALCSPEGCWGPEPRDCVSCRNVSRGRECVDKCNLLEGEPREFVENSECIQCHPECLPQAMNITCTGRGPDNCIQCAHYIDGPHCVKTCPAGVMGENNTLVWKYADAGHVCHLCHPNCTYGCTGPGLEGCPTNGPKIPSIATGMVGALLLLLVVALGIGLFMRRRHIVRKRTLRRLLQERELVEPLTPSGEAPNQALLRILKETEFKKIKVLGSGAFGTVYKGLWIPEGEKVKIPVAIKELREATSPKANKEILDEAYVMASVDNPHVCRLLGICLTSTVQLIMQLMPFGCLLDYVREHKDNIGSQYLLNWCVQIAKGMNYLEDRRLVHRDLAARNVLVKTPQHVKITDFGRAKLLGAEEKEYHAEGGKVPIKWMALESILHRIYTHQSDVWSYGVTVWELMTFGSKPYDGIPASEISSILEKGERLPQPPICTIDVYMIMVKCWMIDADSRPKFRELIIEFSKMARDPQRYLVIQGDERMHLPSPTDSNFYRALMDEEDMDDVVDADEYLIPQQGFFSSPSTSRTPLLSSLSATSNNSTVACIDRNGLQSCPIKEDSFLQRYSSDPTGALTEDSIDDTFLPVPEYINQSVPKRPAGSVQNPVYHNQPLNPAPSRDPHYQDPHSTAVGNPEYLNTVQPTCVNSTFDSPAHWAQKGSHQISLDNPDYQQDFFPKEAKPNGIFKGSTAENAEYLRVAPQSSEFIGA
compound,measurement,setting,value
"O=C1CC[C@H](Nc2ccc(C3CCN(CC(=O)N4CCC(NC(=O)c5ccc(C#Cc6cc(F)c7c(c6)C(=O)N(C(C(=O)Nc6nccs6)c6ncn8c6CCC8)C7)cn5)CC4)CC3)c(F)c2)C(=O)N1 (stereo partly drawn) [Compound 4, 5-[2-[2-[1-(6,7-dihydro-5H-pyrrolo[1,2-c]imidazol-1-yl)-2-oxo-2-(thiazol-2-ylamino)ethyl]-7-fluoro-3-oxo-isoindolin-5-yl]ethynyl]-N-[1-[2-[4-[4-[[(3S)-2,6-dioxo-3-piperidyl]amino]-2-fluoro-phenyl]-1-piperidyl]acetyl]-4-piperidyl]pyridine-2-carboxamide]",DC50,[1],10 nM
same,DC50,[2],9 nM
"O=C1NC(=O)C2(Nc3ccc(C4CCN(CC(=O)N5CCC(Oc6ccc(-c7cc(F)c8c(c7)C(=O)N(C(C(=O)Nc7nccs7)c7ncn9c7CCC9)C8)cc6)CC5)CC4)cc3)CC1C2 (stereo not shown) [Compound 38, 2-(6,7-dihydro-5H-pyrrolo[1,2-c]imidazol-1-yl)-2-(6-(4-((1-(2-(4-(4-((2,4-dioxo-3-azabicyclo[3.1.1]heptan-1-yl)amino)phenyl)piperidin-1-yl)acetyl)piperidin-4-yl)oxy)phenyl)-4-fluoro-1-oxoisoindolin-2-yl)-N-(thiazol-2-yl)acetamide]",DC50,[1],52 nM
"O=C1CC[C@H](Nc2ccc(C3CCN(CC(=O)N4CCC(Oc5ccc(-c6cc(F)c7c(c6)C(=O)N(C(C(=O)Nc6nccs6)c6ncn8c6CCC8)C7)cc5)CC4)CC3)c(F)c2)C(=O)N1 (stereo partly drawn) [Compound 39, 2-(6,7-dihydro-5H-pyrrolo[1,2-c]imidazol-1-yl)-2-(6-(4-((1-(2-(4-(4-(((S)-2,6-dioxopiperidin-3-yl)amino)-2-fluorophenyl)piperidin-1-yl)acetyl)piperidin-4-yl)oxy)phenyl)-4-fluoro-1-oxoisoindolin-2-yl)-N-(thiazol-2-yl)acetamide]",DC50,[1],88 nM
"O=C1CC[C@H](Nc2ccc(C3CCN(CC(=O)N4CC[C@@H](Oc5ccc(-c6cc(F)c7c(c6)C(=O)N(C(C(=O)Nc6nccs6)c6ncn8c6CCC8)C7)cc5)C4)CC3)cc2)C(=O)N1 (stereo partly drawn) [Compound 41, 2-(6,7-dihydro-5H-pyrrolo[1,2-c]imidazol-1-yl)-2-[6-[4-[(3R)-1-[2-[4-[4-[[(3S)-2,6-dioxo-3-piperidyl]amino]phenyl]-1-piperidyl]acetyl]pyrrolidin-3-yl]oxyphenyl]-4-fluoro-1-oxo-isoindolin-2-yl]-N-thiazol-2-yl-acetamide]",DC50,[1],26 nM
"O=C1CC[C@H](Nc2ccc(C3CCN(CC(=O)N4CC[C@H](Oc5ccc(-c6cc(F)c7c(c6)C(=O)N(C(C(=O)Nc6nccs6)c6ncn8c6CCC8)C7)cc5)C4)CC3)cc2)C(=O)N1 (stereo partly drawn) [Compound 42, 2-(6,7-dihydro-5H-pyrrolo[1,2-c]imidazol-1-yl)-2-[6-[4-[(3S)-1-[2-[4-[4-[[(3S)-2,6-dioxo-3-piperidyl]amino]phenyl]-1-piperidyl]acetyl]pyrrolidin-3-yl]oxyphenyl]-4-fluoro-1-oxo-isoindolin-2-yl]-N-thiazol-2-yl-acetamide]",DC50,[1],20 nM
"Cn1nc(N2CCC(=O)NC2=O)c2ccc(C3CCN(CC(=O)N4CC5(C4)CN(c4ccc(-c6cc(F)c7c(c6)C(=O)N(C(C(=O)Nc6nccs6)c6ncn8c6CCC8)C7)cc4)C5)CC3(F)F)cc21 (stereo not shown) [Compound 50, 2-(6,7-dihydro-5H-pyrrolo[1,2-c]imidazol-1-yl)-2-[6-[4-[2-[2-[4-[3-(2,4-dioxohexahydropyrimidin-1-yl)-1-methyl-indazol-6-yl]-3,3-difluoro-1-piperidyl]acetyl]-2,6-diazaspiro[3.3]heptan-6-yl]phenyl]-4-fluoro-1-oxo-isoindolin-2-yl]-N-thiazol-2-yl-acetamide]",DC50,[1],10 nM
"Cn1nc(N2CCC(=O)NC2=O)c2ccc(C3CCN(CC(=O)N4CC5(C4)CN(c4ccc(-c6cc(F)c7c(c6)C(=O)N(C(C(=O)Nc6ccccn6)c6ncn8c6CCC8)C7)cc4)C5)CC3)cc21 (stereo not shown) [Compound 54, 2-(6,7-dihydro-5H-pyrrolo[1,2-c]imidazol-1-yl)-2-[6-[4-[2-[2-[4-[3-(2,4-dioxohexahydropyrimidin-1-yl)-1-methyl-indazol-6-yl]-1-piperidyl]acetyl]-2,6-diazaspiro[3.3]heptan-6-yl]phenyl]-4-fluoro-1-oxo-isoindolin-2-yl]-N-(2-pyridyl)acetamide]",DC50,[1],16 nM
"Cn1nc(N2CCC(=O)NC2=O)c2ccc(C3CCN(CC(=O)N4CC5(C4)CN(c4ccc(-c6cc(F)c7c(c6)C(=O)N(C(C(=O)Nc6ccccn6)c6ncn8c6CCC8)C7)cc4)C5)CC3(F)F)cc21 (stereo not shown) [Compound 55, 2-(6,7-dihydro-5H-pyrrolo[1,2-c]imidazol-1-yl)-2-[6-[4-[2-[2-[4-[3-(2,4-dioxohexahydropyrimidin-1-yl)-1-methyl-indazol-6-yl]-3,3-difluoro-1-piperidyl]acetyl]-2,6-diazaspiro[3.3]heptan-6-yl]phenyl]-4-fluoro-1-oxo-isoindolin-2-yl]-N-(2-pyridyl)acetamide]",DC50,[1],11 nM
"O=C1CCC(Nc2ccc(C3CCN(CC(=O)N4CCN(c5ccc(-c6cc(F)c7cn(C(C(=O)Nc8nccs8)c8ncn9c8CCC9)nc7c6)cn5)CC4)CC3)c(F)c2)C(=O)N1 (stereo not shown) [Compound 64, 2-(6,7-dihydro-5H-pyrrolo[1,2-c]imidazol-1-yl)-2-[6-[6-[4-[2-[4-[4-[(2,6-dioxo-3-piperidyl)amino]-2-fluoro-phenyl]-1-piperidyl]acetyl]piperazin-1-yl]-3-pyridyl]-4-fluoro-indazol-2-yl]-N-thiazol-2-yl-acetamide]",DC50,[1],137 nM
"O=C1CCC(Nc2ccc(C3CCN(CC(=O)N4CCN(c5ccc(-c6cc(F)c7cn(C(C(=O)Nc8nccs8)c8ncn9c8CCC9)nc7c6)cn5)CC4)CC3)cc2)C(=O)N1 (stereo not shown) [Compound 65, 2-(6,7-dihydro-5H-pyrrolo[1,2-c]imidazol-1-yl)-2-[6-[6-[4-[2-[4-[4-[(2,6-dioxo-3-piperidyl)amino]phenyl]-1-piperidyl]acetyl]piperazin-1-yl]-3-pyridyl]-4-fluoro-indazol-2-yl]-N-thiazol-2-yl-acetamide]",DC50,[1],36 nM
"O=C1CCC(Nc2cc(F)c(N3CCC(O)(CC(=O)N4CCC5(CC4)CN(c4ccc(-c6cc(F)c7c(c6)C(=O)N(C(C(=O)Nc6nccs6)c6ncn8c6CCC8)C7)cc4)C5)CC3)c(F)c2)C(=O)N1 (stereo not shown) [Compound 137, 2-(6,7-dihydro-5H-pyrrolo[1,2-c]imidazol-1-yl)-2-[6-[4-[7-[2-[1-[4-[[2,6-dioxo-3-piperidyl]amino]-2,6-difluoro-phenyl]-4-hydroxy-4-piperidyl]acetyl]-2,7-diazaspiro[3.5]nonan-2-yl]phenyl]-4-fluoro-1-oxo-isoindolin-2-yl]-N-thiazol-2-yl-acetamide]",DC50,[1]; class symbols,50 to 150 nM
"O=C1CCC(Nc2cc(F)c(N3CCC(O)(CC(=O)N4CC5(C4)CN(c4ccc(-c6cc(F)c7c(c6)C(=O)N(C(C(=O)Nc6nccs6)c6ncn8c6CCC8)C7)cc4)C5)CC3)c(Cl)c2)C(=O)N1 (stereo not shown) [Compound 145, 2-[6-[4-[2-[2-[1-[2-chloro-4-[[2,6-dioxo-3-piperidyl]amino]-6-fluoro-phenyl]-4-hydroxy-4-piperidyl]acetyl]-2,6-diazaspiro[3.3]heptan-6-yl]phenyl]-4-fluoro-1-oxo-isoindolin-2-yl]-2-(6,7-dihydro-5H-pyrrolo[1,2-c]imidazol-1-yl)-N-thiazol-2-yl-acetamide]",DC50,[1]; class symbols,50 to 150 nM
"O=C1CC[C@H](Nc2ccc(N3CCC(O)(C(=O)N4CC5(C4)CN(c4ccc(-c6cc(F)c7c(c6)C(=O)N(C(C(=O)Nc6nccs6)c6ncn8c6CCC8)C7)cc4)C5)CC3)c(F)c2)C(=O)N1 (stereo partly shown) [Compound 146, 2-(6,7-dihydro-5H-pyrrolo[1,2-c]imidazol-1-yl)-2-[6-[4-[2-[1-[4-[[2,6-dioxo-3-piperidyl]amino]-2-fluoro-phenyl]-4-hydroxy-piperidine-4-carbonyl]-2,6-diazaspiro[3.3]heptan-6-yl]phenyl]-4-fluoro-1-oxo-isoindolin-2-yl]-N-thiazol-2-yl-acetamide]",DC50,[1]; class symbols,< 50 nM
"O=C1CCC(c2ccc(N3CCC(O)(CC(=O)N4CC5(CCN(c6ccc(-c7cc(F)c8c(c7)C(=O)N(C(C(=O)Nc7nccs7)c7ncn9c7CCC9)C8)cc6)CC5)C4)CC3)c(F)c2)C(=O)N1 (stereo not shown) [Compound 159, 2-(6,7-dihydro-5H-pyrrolo[1,2-c]imidazol-1-yl)-2-[6-[4-[2-[2-[1-[4-(2,6-dioxo-3-piperidyl)-2-fluoro-phenyl]-4-hydroxy-4-piperidyl]acetyl]-2,7-diazaspiro[3.5]nonan-7-yl]phenyl]-4-fluoro-1-oxo-isoindolin-2-yl]-N-thiazol-2-yl-acetamide]",DC50,[1]; class symbols,50 to 150 nM
"O=C1CCC(c2ccc(N3CCC(O)(CC(=O)N4CCC5(CC4)CN(c4ccc(-c6cc(F)c7c(c6)C(=O)N(C(C(=O)Nc6nccs6)c6ncn8c6CCC8)C7)cc4)C5)CC3)c(F)c2)C(=O)N1 (stereo not shown) [Compound 160, 2-(6,7-dihydro-5H-pyrrolo[1,2-c]imidazol-1-yl)-2-[6-[4-[7-[2-[1-[4-(2,6-dioxo-3-piperidyl)-2-fluoro-phenyl]-4-hydroxy-4-piperidyl]acetyl]-2,7-diazaspiro[3.5]nonan-2-yl]phenyl]-4-fluoro-1-oxo-isoindolin-2-yl]-N-thiazol-2-yl-acetamide]",DC50,[1]; class symbols,50 to 150 nM
